Assay results reported in patent US20250092016A1, “COMPOUNDS AND COMPOSITIONS FOR THE TREATMENT OF CORONAVIRAL RELATED DISEASES” (priority 2021, published 2025).

Molecular target: SARS-CoV-2 main protease (M^pro) (Severe acute respiratory syndrome coronavirus 2, UniProt P0DTD1)
Test: Rapid-Fire MS Biochemical Assay measuring Mpro activity (5 nM Mpro)
Conditions: Rapid-Fire Assay IC50, Table 1B, Mpro inhibition, 5 μM substrate peptide, 120 min

Row | Structure (SMILES) | IC50
1 | N#Cc1ccc(N2C[C@H](C#N)N(c3cncc4ccccc34)C2=O)cc1F (single isomer, unassigned) [Compound 73a] | < 20 nM
2 | N#Cc1ccc(N2C[C@@H](C#N)N(c3cncc4ccccc34)C2=O)cc1F (single isomer, unassigned) [Compound 73b] | 200 to 1000 nM

Same assay, conditions: Table 1B, Mpro inhibition, 5 μM substrate peptide, 120 min, read-out: Rapid-Fire Assay IC50

Row | Structure (SMILES) | IC50
3 | N#Cc1cccc(N2C[C@@H](C#N)N(c3cncc4ccccc34)C2=O)c1 (single isomer, unassigned) [Compound 52b] | 200 to 1000 nM
4 | Cc1ccnc(N2C[C@H](C#N)N(c3cncc4ccccc34)C2=O)n1 (single isomer, unassigned) [Compound 53a] | 200 to 1000 nM
5 | Cc1ccnc(N2C[C@@H](C#N)N(c3cncc4ccccc34)C2=O)n1 (single isomer, unassigned) [Compound 53b] | > 1000 nM
6 | N#C[C@H]1CN(c2cc(Cl)cnn2)C(=O)N1c1cncc2ccccc12 (single isomer, unassigned) [Compound 54a] | 20 to 200 nM
7 | N#C[C@@H]1CN(c2cc(Cl)cnn2)C(=O)N1c1cncc2ccccc12 (single isomer, unassigned) [Compound 54b] | 200 to 1000 nM
8 | N#C[C@H]1CN(c2ccc(F)nc2)C(=O)N1c1cncc2ccccc12 (single isomer, unassigned) [Compound 55a] | 20 to 200 nM
9 | N#C[C@@H]1CN(c2ccc(F)nc2)C(=O)N1c1cncc2ccccc12 (single isomer, unassigned) [Compound 55b] | > 1000 nM
10 | N#C[C@H]1CN(c2ccccc2F)C(=O)N1c1cncc2ccccc12 (single isomer, unassigned) [Compound 56a] | 20 to 200 nM
11 | N#C[C@@H]1CN(c2ccccc2F)C(=O)N1c1cncc2ccccc12 (single isomer, unassigned) [Compound 56b] | > 1000 nM
12 | N#C[C@H]1CN(c2ccnc(C(F)(F)F)c2)C(=O)N1c1cncc2ccccc12 (single isomer, unassigned) [Compound 57a] | < 20 nM
13 | N#C[C@@H]1CN(c2ccnc(C(F)(F)F)c2)C(=O)N1c1cncc2ccccc12 (single isomer, unassigned) [Compound 57b] | > 1000 nM
14 | COc1cc(Cl)cnc1N1C[C@H](C#N)N(c2cncc3ccccc23)C1=O (single isomer, unassigned) [Compound 58a] | 20 to 200 nM
15 | COc1cc(Cl)cnc1N1C[C@@H](C#N)N(c2cncc3ccccc23)C1=O (single isomer, unassigned) [Compound 58b] | > 1000 nM
16 | N#C[C@H]1CN(c2cc(OC(F)F)ccc2F)C(=O)N1c1cncc2ccccc12 (single isomer, unassigned) [Compound 59a] | 20 to 200 nM
17 | N#C[C@@H]1CN(c2cc(OC(F)F)ccc2F)C(=O)N1c1cncc2ccccc12 (single isomer, unassigned) [Compound 59b] | > 1000 nM
18 | N#Cc1cc(Cl)ccc1N1C[C@H](C#N)N(c2cncc3ccccc23)C1=O (single isomer, unassigned) [Compound 60a] | < 20 nM
19 | N#Cc1cc(Cl)ccc1N1C[C@@H](C#N)N(c2cncc3ccccc23)C1=O (single isomer, unassigned) [Compound 60b] | 200 to 1000 nM
20 | N#C[C@H]1CN(c2cccc(F)n2)C(=O)N1c1cncc2ccccc12 (single isomer, unassigned) [Compound 61a] | 20 to 200 nM
21 | N#C[C@@H]1CN(c2cccc(F)n2)C(=O)N1c1cncc2ccccc12 (single isomer, unassigned) [Compound 61b] | > 1000 nM
22 | Cc1cnc(C(F)(F)F)nc1N1C[C@H](C#N)N(c2cncc3ccccc23)C1=O (single isomer, unassigned) [Compound 62a] | 200 to 1000 nM

Row | Structure (SMILES) | IC50
23 | Cc1cnc(C(F)(F)F)nc1N1C[C@@H](C#N)N(c2cncc3ccccc23)C1=O (single isomer, unassigned) [Compound 62b] | > 1000 nM
24 | N#C[C@H]1CN(c2cccc3cn[nH]c23)C(=O)N1c1cncc2ccccc12 (single isomer, unassigned) [Compound 63a] | < 20 nM
25 | N#C[C@@H]1CN(c2cccc3cn[nH]c23)C(=O)N1c1cncc2ccccc12 (single isomer, unassigned) [Compound 63b] | > 1000 nM
26 | CC(C)n1cc(N2C[C@H](C#N)N(c3cncc4ccccc34)C2=O)cn1 (single isomer, unassigned) [Compound 64a] | < 20 nM
27 | CC(C)n1cc(N2C[C@@H](C#N)N(c3cncc4ccccc34)C2=O)cn1 (single isomer, unassigned) [Compound 64b] | > 1000 nM
28 | Cn1cc(N2C[C@H](C#N)N(c3cncc4ccccc34)C2=O)cn1 (single isomer, unassigned) [Compound 65a] | 20 to 200 nM
29 | Cn1cc(N2C[C@@H](C#N)N(c3cncc4ccccc34)C2=O)cn1 (single isomer, unassigned) [Compound 65b] | > 1000 nM
30 | N#C[C@H]1CN(c2ccc(F)cc2F)C(=O)N1c1cncc2ccccc12 (single isomer, unassigned) [Compound 66a] | < 20 nM
31 | N#C[C@@H]1CN(c2ccc(F)cc2F)C(=O)N1c1cncc2ccccc12 (single isomer, unassigned) [Compound 66b] | > 1000 nM
32 | Cn1ccc(N2C[C@H](C#N)N(c3cncc4ccccc34)C2=O)cc1=O (single isomer, unassigned) [Compound 67a] | 20 to 200 nM
33 | Cn1ccc(N2C[C@@H](C#N)N(c3cncc4ccccc34)C2=O)cc1=O (single isomer, unassigned) [Compound 67b] | > 1000 nM
34 | N#C[C@H]1CN(c2ncc(C(F)(F)F)[nH]2)C(=O)N1c1cncc2ccccc12 (single isomer, unassigned) [Compound 68a] | 20 to 200 nM
35 | N#C[C@@H]1CN(c2ncc(C(F)(F)F)[nH]2)C(=O)N1c1cncc2ccccc12 (single isomer, unassigned) [Compound 68b] | > 1000 nM
36 | CC(C)(O)c1cccc(N2C[C@H](C#N)N(c3cncc4ccccc34)C2=O)c1 (single isomer, unassigned) [Compound 69a] | 20 to 200 nM
37 | CC(C)(O)c1cccc(N2C[C@@H](C#N)N(c3cncc4ccccc34)C2=O)c1 (single isomer, unassigned) [Compound 69b] | > 1000 nM
38 | Cc1cnc(C(F)(F)F)cc1N1C[C@H](C#N)N(c2cncc3ccccc23)C1=O (single isomer, unassigned) [Compound 70a] | < 20 nM
39 | Cc1cnc(C(F)(F)F)cc1N1C[C@@H](C#N)N(c2cncc3ccccc23)C1=O (single isomer, unassigned) [Compound 70b] | > 1000 nM
40 | N#C[C@H]1CN(c2ccc(OC(F)F)cc2)C(=O)N1c1cncc2ccccc12 (single isomer, unassigned) [Compound 71a] | < 20 nM
41 | N#C[C@@H]1CN(c2ccc(OC(F)F)cc2)C(=O)N1c1cncc2ccccc12 (single isomer, unassigned) [Compound 71b] | > 1000 nM
42 | N#C[C@H]1CN(c2ccc(F)c(F)c2)C(=O)N1c1cncc2ccccc12 (single isomer, unassigned) [Compound 72a] | < 20 nM

Row | Structure (SMILES) | IC50
43 | N#C[C@@H]1CN(c2ccc(F)c(F)c2)C(=O)N1c1cncc2ccccc12 (single isomer, unassigned) [Compound 72b] | 200 to 1000 nM
44 | Cc1ncccc1N1C[C@H](C#N)N(c2cncc3ccccc23)C1=O (single isomer, unassigned) [Compound 74a] | 200 to 1000 nM
45 | Cc1ncccc1N1C[C@@H](C#N)N(c2cncc3ccccc23)C1=O (single isomer, unassigned) [Compound 74b] | > 1000 nM
46 | N#C[C@H]1CN(c2ccc(C(F)F)nc2)C(=O)N1c1cncc2ccccc12 (single isomer, unassigned) [Compound 75a] | < 20 nM
47 | N#C[C@@H]1CN(c2ccc(C(F)F)nc2)C(=O)N1c1cncc2ccccc12 (single isomer, unassigned) [Compound 75b] | > 1000 nM
48 | N#C[C@H]1CN(c2cccc(F)c2)C(=O)N1c1cncc2ccccc12 (single isomer, unassigned) [Compound 76a] | < 20 nM
49 | N#C[C@@H]1CN(c2cccc(F)c2)C(=O)N1c1cncc2ccccc12 (single isomer, unassigned) [Compound 76b] | > 1000 nM
50 | N#C[C@H]1CN(c2cnc(C(F)(F)F)c(F)c2)C(=O)N1c1cncc2ccccc12 (single isomer, unassigned) [Compound 77a] | < 20 nM
51 | N#C[C@@H]1CN(c2cnc(C(F)(F)F)c(F)c2)C(=O)N1c1cncc2ccccc12 (single isomer, unassigned) [Compound 77b] | 20 to 200 nM
52 | N#C[C@H]1CN(c2ccc(C(F)F)cn2)C(=O)N1c1cncc2ccccc12 (single isomer, unassigned) [Compound 78a] | < 20 nM
53 | N#C[C@@H]1CN(c2ccc(C(F)F)cn2)C(=O)N1c1cncc2ccccc12 (single isomer, unassigned) [Compound 78b] | > 1000 nM
54 | Cc1ncc(N2C[C@H](C#N)N(c3cncc4ccccc34)C2=O)cn1 (single isomer, unassigned) [Compound 79a] | 20 to 200 nM
55 | Cc1ncc(N2C[C@@H](C#N)N(c3cncc4ccccc34)C2=O)cn1 (single isomer, unassigned) [Compound 79b] | > 1000 nM
56 | Cc1cc(Cl)cnc1N1C[C@H](C#N)N(c2cncc3ccccc23)C1=O (single isomer, unassigned) [Compound 80a] | 20 to 200 nM
57 | Cc1cc(Cl)cnc1N1C[C@@H](C#N)N(c2cncc3ccccc23)C1=O (single isomer, unassigned) [Compound 80b] | > 1000 nM
58 | N#C[C@H]1CN(c2ccc(C(F)(F)F)nn2)C(=O)N1c1cncc2ccccc12 (single isomer, unassigned) [Compound 81a] | < 20 nM
59 | N#C[C@@H]1CN(c2ccc(C(F)(F)F)nn2)C(=O)N1c1cncc2ccccc12 (single isomer, unassigned) [Compound 81b] | > 1000 nM
60 | Cc1ccc(C(F)(F)F)nc1N1C[C@H](C#N)N(c2cncc3ccccc23)C1=O (single isomer, unassigned) [Compound 82a] | 20 to 200 nM
61 | Cc1ccc(C(F)(F)F)nc1N1C[C@@H](C#N)N(c2cncc3ccccc23)C1=O (single isomer, unassigned) [Compound 82b] | > 1000 nM
62 | N#C[C@H]1CN(c2ccc(OC(F)F)cc2F)C(=O)N1c1cncc2ccccc12 (single isomer, unassigned) [Compound 83a] | 20 to 200 nM
